# From ChEMBL document CHEMBL5696441 (Nat Chem Biol, 2011)
# Experiments:
# [1] = biological target: cAMP-dependent protein kinase catalytic subunit PRKX (Homo sapiens) (UniProt P51817); assay: Inhibition of PRKX (unknown origin) assessed as remaining activity at 1 uM by Kinome scan method relative to control
# [2] = biological target: Serine/threonine-protein kinase mTOR (Homo sapiens) (UniProt P42345); assay: Inhibition of human mTOR assessed as residual activity at 1 uM using casein as substrate in presence of 33P-ATP by ProQinase assay relative to control
# [3] = biological target: SRSF protein kinase 3 (Homo sapiens) (UniProt Q9UPE1); assay: Inhibition of SRPK3 (unknown origin) assessed as remaining activity at 1 uM by Kinome scan method relative to control
# Sequence of SRSF protein kinase 3 (Homo sapiens) (Q9UPE1 whole entry): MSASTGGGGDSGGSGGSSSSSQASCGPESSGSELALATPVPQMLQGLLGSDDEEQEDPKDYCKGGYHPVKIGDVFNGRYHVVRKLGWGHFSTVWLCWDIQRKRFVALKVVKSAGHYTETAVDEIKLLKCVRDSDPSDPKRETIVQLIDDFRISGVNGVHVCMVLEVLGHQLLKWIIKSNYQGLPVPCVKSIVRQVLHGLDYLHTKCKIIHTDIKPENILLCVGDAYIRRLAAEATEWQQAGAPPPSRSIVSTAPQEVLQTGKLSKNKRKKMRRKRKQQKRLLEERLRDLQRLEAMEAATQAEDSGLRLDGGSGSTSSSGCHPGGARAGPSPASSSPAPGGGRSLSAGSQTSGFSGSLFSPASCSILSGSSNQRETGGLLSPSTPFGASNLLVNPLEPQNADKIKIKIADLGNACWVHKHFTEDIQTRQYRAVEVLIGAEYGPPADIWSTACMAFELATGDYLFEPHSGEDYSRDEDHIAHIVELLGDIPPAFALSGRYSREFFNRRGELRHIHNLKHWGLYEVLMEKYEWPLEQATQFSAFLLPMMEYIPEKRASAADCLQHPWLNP
# [4] = biological target: Calcium/calmodulin-dependent protein kinase kinase 2 (Homo sapiens) (UniProt Q96RR4); assay: Inhibition of human CAMKK2 assessed as residual activity at 1 uM using RBER-GSK3 as substrate in presence of 33P-ATP by ProQinase assay relative to control
# [5] = biological target: Serine/threonine-protein kinase PAK 3 (Homo sapiens) (UniProt O75914); assay: Inhibition of human PAK3 assessed as residual activity at 1 uM using bio-4xCHKT as substrate in presence of 33P-ATP by ProQinase assay relative to control
# Sequence of Serine/threonine-protein kinase PAK 3 (Homo sapiens) (O75914 whole entry, looked up): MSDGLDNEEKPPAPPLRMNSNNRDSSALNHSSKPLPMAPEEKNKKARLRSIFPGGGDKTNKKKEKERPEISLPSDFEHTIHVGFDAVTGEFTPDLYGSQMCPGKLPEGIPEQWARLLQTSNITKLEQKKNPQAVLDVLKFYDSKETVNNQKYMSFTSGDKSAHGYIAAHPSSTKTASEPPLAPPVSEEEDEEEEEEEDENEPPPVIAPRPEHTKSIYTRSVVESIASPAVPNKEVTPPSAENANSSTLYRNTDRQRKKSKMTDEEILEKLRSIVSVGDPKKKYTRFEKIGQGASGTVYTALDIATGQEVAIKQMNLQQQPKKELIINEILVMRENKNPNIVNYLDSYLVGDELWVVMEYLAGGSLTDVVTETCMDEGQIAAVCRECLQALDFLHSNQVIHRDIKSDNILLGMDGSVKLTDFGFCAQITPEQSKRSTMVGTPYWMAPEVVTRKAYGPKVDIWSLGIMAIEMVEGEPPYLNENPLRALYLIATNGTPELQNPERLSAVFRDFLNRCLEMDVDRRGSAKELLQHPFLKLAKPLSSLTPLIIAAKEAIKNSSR
# [6] = biological target: Activated CDC42 kinase 1 (Homo sapiens) (UniProt Q07912); assay: Inhibition of TNK2 (unknown origin) assessed as remaining activity at 1 uM by Kinome scan method relative to control
# [7] = biological target: Mast/stem cell growth factor receptor Kit (Homo sapiens) (UniProt P10721); assay: Inhibition of KIT (unknown origin) assessed as remaining activity at 1 uM by Kinome scan method relative to control
# [8] = biological target: PAS domain-containing serine/threonine-protein kinase (Homo sapiens) (UniProt Q96RG2); assay: Inhibition of human PASK assessed as residual activity at 1 uM using RBER-CHKtide as substrate in presence of 33P-ATP by ProQinase assay relative to control
# [9] = system: Receptor-type tyrosine-protein kinase FLT3 (Homo sapiens), P36888 [UNDEFINED MUTATION]; assay: Inhibition of human […] mutant assessed as residual activity at 1 uM using Poly(Ala,Glu,Lys,Tyr)6:2:5:1 as substrate in presence of 33P-ATP by ProQinase assay relative to control
# [10] = Anti-inflammatory activity against human derived high respond PBMC cells assessed as inhibition in stimulated MCP-1 chemokine release at 10 uM incubated for 2 hrs in the presence of LPS/SEB/aCD28 by Luminex based sandwich immunoassay relative to control; type: functional
# Mus musculus = assay: In vivo anti-inflammatory activity in Gal/LPS induced mouse assessed as inhibition in TNF-alpha release at 3 mg/kg, po administered for 1 hrs relative to control; type: functional
# [11] = system: Receptor-type tyrosine-protein kinase FLT3 (Homo sapiens), P36888 [D835H]; assay: Inhibition of FLT3 D835H mutant (unknown origin) assessed as remaining activity at 1 uM by Kinome scan method relative to control
# [12] = biological target: Insulin-like growth factor 1 receptor (Homo sapiens) (UniProt P08069); assay: Inhibition of human IGF1R assessed as residual activity at 1 uM using polyEY as substrate in presence of 33P-ATP by ProQinase assay relative to control
# Sequence of Insulin-like growth factor 1 receptor (Homo sapiens) (P08069 31-736 limits assumed): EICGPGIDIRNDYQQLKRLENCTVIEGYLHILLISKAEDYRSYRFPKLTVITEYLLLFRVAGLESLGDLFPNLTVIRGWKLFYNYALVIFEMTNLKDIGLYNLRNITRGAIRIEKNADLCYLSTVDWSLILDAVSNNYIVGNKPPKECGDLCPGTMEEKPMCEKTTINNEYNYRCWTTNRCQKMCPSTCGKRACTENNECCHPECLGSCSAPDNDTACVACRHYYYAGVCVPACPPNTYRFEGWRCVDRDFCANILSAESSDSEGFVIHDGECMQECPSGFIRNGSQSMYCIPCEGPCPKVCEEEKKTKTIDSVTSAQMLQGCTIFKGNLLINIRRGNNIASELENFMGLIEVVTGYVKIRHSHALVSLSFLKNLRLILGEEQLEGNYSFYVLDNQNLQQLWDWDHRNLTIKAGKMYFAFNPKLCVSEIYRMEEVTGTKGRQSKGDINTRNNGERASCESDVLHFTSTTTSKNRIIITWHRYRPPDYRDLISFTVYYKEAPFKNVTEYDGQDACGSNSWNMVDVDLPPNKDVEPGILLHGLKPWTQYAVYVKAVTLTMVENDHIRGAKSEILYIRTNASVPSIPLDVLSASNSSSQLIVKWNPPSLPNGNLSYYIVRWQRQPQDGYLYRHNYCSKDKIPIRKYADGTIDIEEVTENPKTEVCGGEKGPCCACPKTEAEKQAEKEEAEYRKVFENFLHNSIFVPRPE
# Sequence of Insulin-like growth factor 1 receptor (Homo sapiens) (P08069 741-1367 limits assumed): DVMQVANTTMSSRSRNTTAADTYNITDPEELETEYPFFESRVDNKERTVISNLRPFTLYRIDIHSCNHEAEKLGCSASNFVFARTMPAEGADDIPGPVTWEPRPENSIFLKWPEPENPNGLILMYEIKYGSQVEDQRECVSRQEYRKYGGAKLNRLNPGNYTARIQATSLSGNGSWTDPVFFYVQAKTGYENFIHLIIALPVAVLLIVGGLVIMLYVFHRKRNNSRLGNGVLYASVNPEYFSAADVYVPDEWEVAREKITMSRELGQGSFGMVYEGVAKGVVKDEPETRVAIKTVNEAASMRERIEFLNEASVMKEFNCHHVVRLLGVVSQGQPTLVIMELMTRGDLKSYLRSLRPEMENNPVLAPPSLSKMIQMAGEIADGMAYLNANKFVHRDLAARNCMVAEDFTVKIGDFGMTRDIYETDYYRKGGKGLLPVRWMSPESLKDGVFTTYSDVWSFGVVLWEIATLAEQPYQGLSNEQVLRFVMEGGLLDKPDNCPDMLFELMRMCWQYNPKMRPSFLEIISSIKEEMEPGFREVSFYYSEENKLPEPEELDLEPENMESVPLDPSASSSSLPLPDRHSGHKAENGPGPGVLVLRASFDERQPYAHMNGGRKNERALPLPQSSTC
# [13] = biological target: Serine/threonine-protein kinase PAK 6 (Homo sapiens) (UniProt Q9NQU5); assay: Inhibition of human PAK6 assessed as residual activity at 1 uM using bio-4xCHKT as substrate in presence of 33P-ATP by ProQinase assay relative to control
# [14] = biological target: Serine/threonine-protein kinase pim-1 (Homo sapiens) (UniProt P11309); assay: Inhibition of human PIM1 assessed as residual activity at 1 uM using RBER-GSK3(14-27) as substrate in presence of 33P-ATP by ProQinase assay relative to control
# [15] = biological target: Tyrosine-protein kinase Lck (Homo sapiens) (UniProt P06239); assay: Inhibition of human LCK assessed as residual activity at 1 uM using polyEY as substrate in presence of 33P-ATP by ProQinase assay relative to control
# [16] = biological target: Misshapen-like kinase 1 (Homo sapiens) (UniProt Q8N4C8); assay: Inhibition of human MINK1 assessed as residual activity at 1 uM using RBER-CHKtide as substrate in presence of 33P-ATP by ProQinase assay relative to control
# [17] = system: Epidermal growth factor receptor (Homo sapiens), P00533 [UNDEFINED MUTATION]; assay: Inhibition of human EGFR d747-752/P753S mutant assessed as residual activity at 1 uM using PolyEY as substrate in presence of 33P-ATP by ProQinase assay relative to control
# [18] = biological target: Ribosomal protein S6 kinase alpha-2 (Homo sapiens) (UniProt Q15349); assay: Inhibition of N-terminal kinase domain RPS6KA2 (unknown origin) assessed as remaining activity at 1 uM by Kinome scan method relative to control
# [19] = biological target: Tyrosine-protein kinase Yes (Homo sapiens) (UniProt P07947); assay: Inhibition of human YES assessed as residual activity at 1 uM using polyEY as substrate in presence of 33P-ATP by ProQinase assay relative to control
# Sequence of Tyrosine-protein kinase Yes (Homo sapiens) (P07947 2-543 limits assumed): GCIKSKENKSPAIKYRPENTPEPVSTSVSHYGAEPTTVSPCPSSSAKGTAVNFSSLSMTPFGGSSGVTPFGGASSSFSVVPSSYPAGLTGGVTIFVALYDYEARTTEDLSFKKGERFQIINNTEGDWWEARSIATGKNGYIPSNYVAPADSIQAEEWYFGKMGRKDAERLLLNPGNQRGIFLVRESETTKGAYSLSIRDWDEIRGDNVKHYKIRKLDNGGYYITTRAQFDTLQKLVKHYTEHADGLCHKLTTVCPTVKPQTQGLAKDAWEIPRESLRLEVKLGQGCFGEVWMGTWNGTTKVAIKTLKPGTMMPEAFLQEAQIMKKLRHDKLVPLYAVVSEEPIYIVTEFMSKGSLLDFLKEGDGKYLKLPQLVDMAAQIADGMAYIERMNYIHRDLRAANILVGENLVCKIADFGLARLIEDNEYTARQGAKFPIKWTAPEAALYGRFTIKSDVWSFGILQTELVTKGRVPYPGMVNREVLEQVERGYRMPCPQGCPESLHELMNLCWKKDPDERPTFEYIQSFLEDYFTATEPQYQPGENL
# [20] = system: Mast/stem cell growth factor receptor Kit (Homo sapiens), P10721 [T670I]; assay: Inhibition of human KIT T670I mutant assessed as residual activity at 1 uM using polyEY as substrate in presence of 33P-ATP by ProQinase assay relative to control
# [21] = biological target: Focal adhesion kinase 1 (Homo sapiens) (UniProt Q05397); assay: Inhibition of FAK (unknown origin) assessed as remaining activity at 1 uM by Kinome scan method relative to control
# Sequence of Focal adhesion kinase 1 (Homo sapiens) (Q05397 2-1052 limits assumed): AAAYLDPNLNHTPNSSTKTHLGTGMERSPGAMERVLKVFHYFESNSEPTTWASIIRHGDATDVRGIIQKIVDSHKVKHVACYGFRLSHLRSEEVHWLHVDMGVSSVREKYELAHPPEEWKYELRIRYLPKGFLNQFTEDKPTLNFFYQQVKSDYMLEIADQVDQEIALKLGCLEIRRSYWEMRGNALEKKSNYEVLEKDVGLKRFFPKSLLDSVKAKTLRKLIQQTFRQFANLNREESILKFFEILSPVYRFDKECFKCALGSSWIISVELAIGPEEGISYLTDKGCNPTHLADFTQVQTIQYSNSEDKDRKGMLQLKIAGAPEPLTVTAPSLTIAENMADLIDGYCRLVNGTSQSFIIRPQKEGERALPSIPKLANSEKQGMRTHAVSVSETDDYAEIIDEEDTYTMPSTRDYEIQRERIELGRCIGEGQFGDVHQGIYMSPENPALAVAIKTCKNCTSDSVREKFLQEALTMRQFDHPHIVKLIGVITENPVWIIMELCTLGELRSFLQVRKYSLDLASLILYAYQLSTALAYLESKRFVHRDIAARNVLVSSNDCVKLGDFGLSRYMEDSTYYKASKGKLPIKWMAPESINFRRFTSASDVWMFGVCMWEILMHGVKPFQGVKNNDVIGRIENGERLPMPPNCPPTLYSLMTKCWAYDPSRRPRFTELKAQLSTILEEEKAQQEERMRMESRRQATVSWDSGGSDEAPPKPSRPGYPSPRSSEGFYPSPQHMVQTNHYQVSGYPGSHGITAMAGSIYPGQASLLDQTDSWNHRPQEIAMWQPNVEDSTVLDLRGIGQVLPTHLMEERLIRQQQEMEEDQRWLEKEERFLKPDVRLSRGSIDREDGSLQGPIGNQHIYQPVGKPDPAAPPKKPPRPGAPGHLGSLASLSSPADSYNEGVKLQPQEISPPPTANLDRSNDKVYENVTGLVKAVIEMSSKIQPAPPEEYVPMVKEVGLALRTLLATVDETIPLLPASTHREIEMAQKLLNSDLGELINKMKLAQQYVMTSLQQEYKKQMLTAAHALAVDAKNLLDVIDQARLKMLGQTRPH
# [22] = biological target: Inhibitor of nuclear factor kappa-B kinase subunit epsilon (Homo sapiens) (UniProt Q14164); assay: Inhibition of human IKKepsilon assessed as residual activity at 1 uM using RBER-GSK3 as substrate in presence of 33P-ATP by ProQinase assay relative to control
# Sequence of Inhibitor of nuclear factor kappa-B kinase subunit epsilon (Homo sapiens) (Q14164 whole entry): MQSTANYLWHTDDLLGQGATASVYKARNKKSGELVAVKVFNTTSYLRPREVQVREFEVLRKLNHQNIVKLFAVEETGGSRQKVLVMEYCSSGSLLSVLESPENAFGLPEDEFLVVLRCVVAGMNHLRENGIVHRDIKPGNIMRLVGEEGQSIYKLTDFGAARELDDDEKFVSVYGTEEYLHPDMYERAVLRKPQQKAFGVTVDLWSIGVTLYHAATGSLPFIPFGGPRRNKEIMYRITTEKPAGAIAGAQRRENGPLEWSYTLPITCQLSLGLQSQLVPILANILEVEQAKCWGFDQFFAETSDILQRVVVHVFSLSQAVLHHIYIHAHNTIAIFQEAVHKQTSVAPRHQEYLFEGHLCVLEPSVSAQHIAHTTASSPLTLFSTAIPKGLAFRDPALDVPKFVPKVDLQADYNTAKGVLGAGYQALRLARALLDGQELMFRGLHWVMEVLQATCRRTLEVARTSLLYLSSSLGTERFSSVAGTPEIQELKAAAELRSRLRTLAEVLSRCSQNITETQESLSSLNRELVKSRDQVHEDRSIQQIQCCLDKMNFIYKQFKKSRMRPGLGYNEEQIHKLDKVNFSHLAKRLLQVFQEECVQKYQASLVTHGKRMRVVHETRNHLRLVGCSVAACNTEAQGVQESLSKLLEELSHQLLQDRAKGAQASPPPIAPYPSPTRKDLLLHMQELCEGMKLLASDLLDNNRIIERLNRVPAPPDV
# [23] = biological target: Serine/threonine-protein kinase TAO2 (Homo sapiens) (UniProt Q9UL54); assay: Inhibition of human TAOK2 assessed as residual activity at 1 uM using casein as substrate in presence of 33P-ATP by ProQinase assay relative to control
# [24] = biological target: Cyclin-dependent kinase 15 (Homo sapiens) (UniProt Q96Q40); assay: Inhibition of PFTAIRE2 (unknown origin) assessed as remaining activity at 1 uM by Kinome scan method relative to control
# [25] = biological target: Non-receptor tyrosine-protein kinase TYK2 (Homo sapiens) (UniProt P29597); assay: Inhibition of human TYK2 assessed as residual activity at 1 uM using poly(Ala,Glu,Lys,Tyr)6:2:5:1 as substrate in presence of 33P-ATP by ProQinase assay relative to control
# [26] = biological target: SRSF protein kinase 3 (Homo sapiens) (UniProt Q9UPE1); assay: Inhibition of human STK23 assessed as residual activity at 1 uM using RBER-CHKtide as substrate in presence of 33P-ATP by ProQinase assay relative to control
smiles,measurement,setting,value
O=C1c2ccc(Nc3ccc(F)cc3F)cc2CCc2ccc(OC[C@H](O)CO)cc21 [Skepinone-L],Activity,[1],89%
same,Activity,[2],97%
same,Activity,[3],100%
same,Activity,[4],97%
same,Activity,[5],107%
same,Activity,[6],100%
same,Activity,[7],93%
same,Activity,[8],88%
same,Activity,[9],101%
same,inhibition at 10 µM,[10],25%
same,inhibition in vivo at 3 mg/kg,Mus musculus,77%
same,Activity,[11],88%
same,Activity,[12],98%
same,Activity,[13],101%
same,Activity,[14],105%
same,Activity,[15],102%
same,Activity,[16],94%
same,Activity,[17],93%
same,Activity,[18],100%
same,Activity,[19],119%
same,Activity,[20],145%
same,Activity,[21],100%
same,Activity,[22],103%
same,Activity,[23],102%
same,Activity,[24],85%
same,Activity,[25],96%
same,Activity,[26],96%
